For assay [1], the target named is T1, hsTEAD1 (209-426) (Homo sapiens (Human), UniProt P28347). Nature of the assay: Thermal shift measurement / Differential Scanning Fluorimetry (DSF). The assay is classed as binding. As to conditions: 100 uM compound, 2 hours at 4° C., triplicates; read-out: ΔTm TEAD1 (209-426). The method, then:
(§1) Interaction of exemplary compounds with the various TEAD isoforms TEAD1, TEAD2, TEAD3, and TEAD4 was performed in a DSF assay. YAP-binding domains (YBD) of the four isoforms were subcloned and heterogeneously expressed in E. coli as a host. Initial purification was perfomed by using affinity tags, which got removed by overnight protease treatment. Further purification of TEAD isoforms was performed by Size-Exclusion Chromatography (SEC). Target protein containing fractions were pooled, concentrated with an Amicon (10 KDa MWCO) and quantified using the Bradford assay. Exemplary compound testing in the DSF assay for determining the shift of the TEAD isoform melting temperatures has been performed as described below: DSF was performed in MicroAmpTM EnduraPlateTM Optical 96-Well Clear Reaction Plates (Applied Biosystems, Life Technologies, California, USA) using a QuantStudio 7 Flex Real-Time PCR System (Applied Biosystems). Protein samples were briefly centrifuged before preparation. The final reaction mixture (20 μL of total volume) contained 11.8 μM of […]1 (209-426), 7.3 μM of […]2 (217-447), 7.9 μM of […]3 (216-435) or 11.7 μM of […]4 (217-424), and 2 or 4-fold of Protein Thermal ShiftTM Dye (Applied Biosystems) diluted in protein buffer-20 mM Tris pH 8.0, 150 mM NaCl (+0.5 mM TCEP for TEAD1 experiments). Prior to the addition of the dye, proteins were incubated with either 1 μL DMSO 100% (apo) or 100 uM of each exemplary compound (1 μL at 2 mM in 100% DMSO added to the […] reaction mixture) for 2 hours at 4° C. The melting curve data was recorded from 25 to 90° C. with an increment rate of 0.016° C.s^-1. Excitation and emission filters were applied for Protein Thermal ShiftTM Dye (470 nm and 520 nm, respectively) and for ROX reference dye (580 nm and 623 nm, respectively). The melting temperatures (Tm) were obtained by calculating the midpoint of each transition, using the Protein Thermal Shift SoftwareTM version 1.3. The thermal stability effect of each compound (ΔTm) was calculated by subtracting the calculated Tm in presence and absence (apo) of compound. All samples were tested in triplicates.

A further assay has as its target hsTEAD2 (217-447) (Homo sapiens (Human), UniProt Q15562). The description is as above. The assay is classed as binding. As to conditions: 100 uM compound, 2 hours at 4° C., triplicates; read-out: ΔTm TEAD2 (217-447). On the procedure:
as §1

A further assay concerns the target hsTEAD3 (216-435) (Homo sapiens (Human), UniProt Q99594). The description is as above. Type of assay: binding. As to conditions: 100 uM compound, 2 hours at 4° C., triplicates; read-out: ΔTm TEAD3 216-435. The method, then:
as §1

The next assay has as its target hsTEAD4 (217-424) (Homo sapiens (Human), UniProt Q15561). Described as above. Type of assay: binding. As to conditions: 100 uM compound, 2 hours at 4° C., triplicates; read-out: ΔTm TEAD4 217-434. The method, then: as §1
A further assay has as its target TEAD1 in SK-HEP1 cells (Homo sapiens (Human), UniProt P28347). Nature of the assay: TEAD degradation in SK-HEP1 cell line (immunofluorescence). The assay is classed as cell-based. The gist of the method: (§2)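 SK-HEP1 and NCI-H226 cells were treated in duplicate for 16 or 24 h at 37 °C with compound (10 points, 1:3, top 30 µM final). After fixation, TEAD1 was immunostained with anti-TEF1 and per-cell fluorescence quantified by high-content imaging. DC50 from curve fitting.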

Another assay has as its target TEAD1 in NCI-H226 cells (Homo sapiens (Human), UniProt P28347). Nature of the assay: TEAD degradation in NCI-H226 cell line (immunofluorescence). The assay is classed as cell-based. The gist of the method: as §2
Assay [2] concerns the target T1, hsTEAD1 (209-426). The experiment in a line: Surface Plasmon Resonance (SPR) assay. Type of assay: binding. To be noted: Biacore 4000, 15° C., 1:1 Langmuir model, read-out: KD TEAD1 (209-426). On the procedure: The kinetic and affinity parameters of protein-exemplary compound interactions were evaluated by SPR. hsTEAD1 (209-426) was immobilized onto a CM7 (Series S) sensor chip via the standard amine coupling procedure, at 15° C. Prior to immobilization, the carboxymethylated surface of the chip was activated with 400 mM 1-ethyl-3-(3-dimethylaminopropyl)-carbodiimide and 100 mM N-hydroxysuccinimide for 10 min. hsTEAD1 (209-426) was diluted to 11 μg/mL in 10 mM Bis-Tris at pH 6.5 and immobilized on the activated surface chip for 8 and 10 min, in order to reach 6000 to 9000 response units (RU). The remaining activated carboxymethylated groups were blocked with a 7 min injection of 1 M ethanolamine pH 8.5 after which the surface chip was washed with 0.5% (w/v) sodium dodecyl sulphate and 50 mM glycine. HBS-N, which consists of 10 mM HEPES pH 7.4 and 150 mM NaCl, was used as the background buffer during immobilization. Exemplary compounds were prediluted in DMSO, diluted 1:50 in running buffer (20 mM Tris pH 7.4, 150 mM NaCl, 1 mM DTT, 5 mM MgCl2, 0.1 mM EGTA, 0.05% CHAPS) and injected at ten different concentrations using two-fold dilution series, from 100 μM to 0.2 μM. A DMSO solvent correction (1%-3%) was performed to account for variations in bulk signal and to achieve high-quality data. Interaction analysis cycles consisted of a 240 sec sample injection (30 μL/min; association phase) followed by 600 sec of buffer flow (dissociation phase).
All sensorgrams were processed by first subtracting the binding response recorded from the control surface (reference spot), followed by subtracting of the buffer blank injection from the reaction spot. All datasets were fit to a simple 1:1 Langmuir interaction model to determine the kinetic rate constants, KD. Experiments were performed on a Biacore 4000 (Cytiva, Uppsala, Sweden) at 15° C. and the interactions were evaluated using the provided Biacore 4000 evaluation software.
On the technique in general: Surface plasmon resonance follows binding to a sensor surface in real time, without labels.

The mark [3] stands for this setting: 24 hours, ranges, read-out: DC50 SK-HEP1.
[4] abbreviates: 24 hours, ranges, read-out: DC50 NCI-H226.

Broadly, the ΔTm is the shift of the melting midpoint relative to a reference. In general, DC50 refers to the concentration at which degradation of the target reaches its halfway point. In general, Kd refers to the equilibrium constant for the complex coming apart.

Structures are written as SMILES. Where two headings read alike, the source gives them in different places.

hsTEAD3 (216-435), sequence (Q99594 216-435): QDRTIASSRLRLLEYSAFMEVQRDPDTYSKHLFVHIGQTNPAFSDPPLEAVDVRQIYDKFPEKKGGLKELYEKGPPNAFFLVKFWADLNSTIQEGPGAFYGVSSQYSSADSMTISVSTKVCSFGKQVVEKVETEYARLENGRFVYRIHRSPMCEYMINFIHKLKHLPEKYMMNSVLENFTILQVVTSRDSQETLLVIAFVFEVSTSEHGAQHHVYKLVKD
TEAD1 in SK-HEP1 cells, sequence (P28347 whole entry): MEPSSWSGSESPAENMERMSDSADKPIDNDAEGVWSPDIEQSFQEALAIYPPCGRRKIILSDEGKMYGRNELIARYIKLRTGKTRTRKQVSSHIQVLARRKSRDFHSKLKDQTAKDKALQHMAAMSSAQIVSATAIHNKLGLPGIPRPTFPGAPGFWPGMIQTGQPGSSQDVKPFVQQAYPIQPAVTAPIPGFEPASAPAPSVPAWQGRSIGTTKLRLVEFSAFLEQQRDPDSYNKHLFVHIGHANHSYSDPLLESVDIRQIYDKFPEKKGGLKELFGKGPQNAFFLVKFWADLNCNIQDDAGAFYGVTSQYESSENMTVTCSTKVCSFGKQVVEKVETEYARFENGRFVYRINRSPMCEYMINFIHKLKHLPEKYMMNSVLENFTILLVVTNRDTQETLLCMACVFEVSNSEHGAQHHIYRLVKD
TEAD1 in NCI-H226 cells, sequence (P28347 whole entry): as above
hsTEAD2 (217-447), sequence (Q15562 217-447): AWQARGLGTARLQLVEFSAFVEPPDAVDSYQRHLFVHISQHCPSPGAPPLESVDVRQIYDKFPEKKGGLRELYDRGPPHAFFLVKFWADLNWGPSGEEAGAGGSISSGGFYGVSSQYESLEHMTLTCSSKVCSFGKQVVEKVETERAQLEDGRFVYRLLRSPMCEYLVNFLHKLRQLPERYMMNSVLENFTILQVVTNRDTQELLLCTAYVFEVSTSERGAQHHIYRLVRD
T1 sequence (P28347 209-426): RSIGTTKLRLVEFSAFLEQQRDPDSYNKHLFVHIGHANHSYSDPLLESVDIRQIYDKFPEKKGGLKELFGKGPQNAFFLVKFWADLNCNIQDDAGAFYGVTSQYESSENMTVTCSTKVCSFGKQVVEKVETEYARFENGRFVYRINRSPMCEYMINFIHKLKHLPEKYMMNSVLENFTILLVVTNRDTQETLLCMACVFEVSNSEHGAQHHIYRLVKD
hsTEAD4 (217-424), sequence (Q15561 217-434): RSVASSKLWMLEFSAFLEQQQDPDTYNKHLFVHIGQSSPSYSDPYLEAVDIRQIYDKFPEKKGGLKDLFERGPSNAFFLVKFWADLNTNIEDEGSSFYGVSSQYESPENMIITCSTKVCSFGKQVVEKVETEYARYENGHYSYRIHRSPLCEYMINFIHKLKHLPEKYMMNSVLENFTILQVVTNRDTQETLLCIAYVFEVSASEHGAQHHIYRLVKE

`Cc1ncsc1-c1ccc(CNC(=O)[C@H]2C[C@H](O)CN2C(=O)[C@H](NC(=O)COCCOCCOCCOCCOCCNC(=O)c2ccc3c(c2)c2cn(C)nc2n3-c2ccc(C(F)(F)F)cc2)C(C)(C)C)cc1` [Compound 11, (2R,4S)-1-[(2R)-3,3-dimethyl-2-[17-({2-methyl-8-[4-(trifluoromethyl)phenyl]-2H,8H-pyrazolo[3,4-b]indol-5-yl}formamido)-3,6,9,12,15-pentaoxaheptadecanamido]butanoyl]-4-hydroxy-N-{[4-(4-methyl-1,3-thiazol-5-yl)phenyl]methyl}pyrrolidine-2-carboxamide]: the ΔTm at 100 µM is 4.5 °C at hsTEAD1 (209-426) [1], 0.3 °C at hsTEAD2 (217-447), 1.3 °C at hsTEAD3 (216-435) and -0.2 °C on hsTEAD4 (217-424). Also, the DC50 at TEAD1 in SK-HEP1 cells (setting [3]) and at TEAD1 in NCI-H226 cells (setting [4]) was 0.1 to 1 µM in each case.

As to `Cc1ncsc1-c1ccc(CNC(=O)[C@@H]2C[C@@H](O)CN2C(=O)[C@@H](NC(=O)CCCCCC(=O)NCCOCCOCCNC(=O)c2ccc3c(c2)c2cn(C)nc2n3-c2ccc(C(F)(F)F)cc2)C(C)(C)C)cc1` [Compound 4, N-[(2S)-1-[(2S,4R)-4-hydroxy-2-({[4-(4-methyl-1,3-thiazol-5-yl)phenyl]methyl}carbamoyl)pyrrolidin-1-yl]-3,3-dimethyl-1-oxobutan-2-yl]-N′-(2-{2-[2-({2-methyl-8-[4-(trifluoromethyl)phenyl]-2H,8H-pyrazolo[3,4-b]indol-5-yl}formamido)ethoxy]ethoxy}ethyl) heptanediamide], the ΔTm at 100 µM on hsTEAD1 (209-426) [1] was determined as 2.9 °C; at hsTEAD2 (217-447), 1 °C; at hsTEAD3 (216-435) it was 0.6 °C; at hsTEAD4 (217-424), 0 °C. On hsTEAD1 (209-426) [2], the Kd was found to be 0.32 µM. Moreover, the DC50 at TEAD1 in SK-HEP1 cells (16 h incubation, read-out: DC50 SK-HEP1 16 h) was 2 µM; at TEAD1 in SK-HEP1 cells (24 h incubation, read-out: DC50 SK-HEP1 24 h) it was 2 µM; at TEAD1 in SK-HEP1 cells (setting [3]), 0.1 to 1 µM; at TEAD1 in NCI-H226 cells (16 h incubation, read-out: DC50 NCI-H226 16 h), 0.7 µM; at TEAD1 in NCI-H226 cells (24 h incubation, read-out: DC50 NCI-H226 24 h), 0.9 µM; on TEAD1 in NCI-H226 cells (setting [4]) it was 1 to 3 µM.

Consider `Cn1cc2c3cc(C(=O)NCCOCCOCCNC(=O)COCCOCCOCCOCCOCC(=O)Nc4cccc5c4C(=O)N(C4CCC(=O)NC4=O)C5=O)ccc3n(-c3ccc(C(F)(F)F)cc3)c2n1` (centres unmarked) [Compound 1, N′-[2-(2,6-dioxopiperidin-3-yl)-1,3-dioxo-2,3-dihydro-1H-isoindol-4-yl]-N-(2-{2-[2-({2-methyl-8-[4-(trifluoromethyl)phenyl]-2H,8H-pyrazolo[3,4-b]indol-5-yl}formamido)ethoxy]ethoxy}ethyl)-3,6,9,12,15-pentaoxaheptadecanediamide], for which the ΔTm at 100 µM at hsTEAD1 (209-426) [1] worked out at 4.7 °C; at hsTEAD2 (217-447), 0 °C; at hsTEAD3 (216-435), 0 °C. Besides, at hsTEAD1 (209-426) [2], the Kd was found to be 1.87 µM.

Regarding `Cn1cc2c3cc(C(=O)NCCOCCOCCNC(=O)COCCOCCOCC(=O)Nc4cccc5c4C(=O)N(C4CCC(=O)NC4=O)C5=O)ccc3n(-c3ccc(C(F)(F)F)cc3)c2n1` (centres unmarked) [Compound 2, 2-{2-[2-({[2-(2,6-dioxopiperidin-3-yl)-1,3-dioxo-2,3-dihydro-1H-isoindol-4-yl]carbamoyl}methoxy)ethoxy]ethoxy}-N-(2-{2-[2-({2-methyl-8-[4-(trifluoromethyl)phenyl]-2H,8H-pyrazolo[3,4-b]indol-5-yl}formamido)ethoxy]ethoxy}ethyl)acetamide], the ΔTm at 100 µM at hsTEAD1 (209-426) [1] was 4.1 °C; on hsTEAD2 (217-447) it was 0.7 °C; at hsTEAD3 (216-435), 1.3 °C; on hsTEAD4 (217-424), 0 °C. Besides, the Kd at hsTEAD1 (209-426) [2] was found to be 1.52 µM.

These data come from patent US20250032625A1, “HETEROBIFUNCTIONAL MOLECULES AS TEAD INHIBITORS” (Merck Patent GmbH, priority 2021, published 2025).
